Experimental data as given in patent US7138361B2, “Herbicidal heterocycles” (E. I. du Pont de Nemours and Company, priority 2000, dated 2006).

What was measured:
Type in all cases: in vivo
[1] = test system: morningglory (Ipomoea hederacea); test: Test C preemergence
Method in brief: (§1)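 Visual injury scores of 0–100, with 100 meaning complete control, were given relative to controls after 12–14 days in the greenhouse. Treatments used a surfactant-containing non-phytotoxic solvent formulation, sprayed on seeded pots preemergence or on 1–4-leaf plants of 2–18 cm postemergence.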

[2] = test system: bermudagrass (Cynodon dactylon); test: Test C preemergence; settings: for Plant response rating (0 to 100 where 0 is no effect and 100 is complete control), Bermudagrass: visual evaluation after 12 to 14 days
Method in brief: as §1

Nightshade = test: Test C preemergence
[3] = test system: johnsongrass (Sorghum halepense); test: Test C preemergence; settings: for Plant response rating (0 to 100), Johnsongrass: preemergence, visual evaluation after 12 to 14 days
Method in brief: as §1

corn (Zea mays) = test: Test C preemergence; settings: for Plant response rating (0 to 100), Corn: visual evaluation after 12 to 14 days
Method in brief: as §1

[4] = test system: yellow nutsedge (Cyperus esculentus); test: Test C preemergence
Method in brief: as §1

[5] = test system: woolly cupgrass (Eriochloa villosa); test: Test C preemergence; settings: for Plant response rating (0 to 100), Cupgrass, Woolly: visual evaluation after 12 to 14 days
Method in brief: as §1

[6] = test system: velvetleaf (Abutilon theophrasti); test: Test C preemergence
Method in brief: as §1

kochia (Kochia scoparia) = test: Test C preemergence; settings: for Plant response rating (0 to 100), Kochia: visual evaluation after 12 to 14 days
Method in brief: as §1

Sunflower = test: Test C preemergence; settings: Rate 125 g/ha; scale 0 to 100, 0 no effect, 100 complete control
[7] = test system: Surinam grass (Brachiaria decumbens); test: Test C preemergence; settings: for Plant response rating (0 to 100), Surinam grass: visual evaluation after 12 to 14 days
Method in brief: as §1

[8] = test system: lambsquarters (Chenopodium album); test: Test C preemergence
Method in brief: as §1

[9] = test system: pigweed (Amaranthus retroflexus); test: Test C preemergence
Method in brief: as §1

[10] = test system: crabgrass (Digitaria sanguinalis); test: Test C preemergence; settings: for Plant response rating (0 to 100), Crabgrass: visual evaluation after 12 to 14 days
Method in brief: as §1

[11] = test system: goosegrass (Eleusine indica); test: Test C preemergence; settings: for Plant response rating (0 to 100), Goosegrass: visual evaluation after 12 to 14 days
Method in brief: as §1

[12] = test system: cocklebur (Xanthium strumarium); test: Test C preemergence; settings: for Plant response rating (0 to 100), Cocklebur: visual evaluation after 12 to 14 days
Method in brief: as §1

[13] = test system: common ragweed (Ambrosia elatior); test: Test C preemergence
Method in brief: as §1

[14] = test system: giant foxtail (Setaria faberii); test: Test C preemergence; settings: for Plant response rating (0 to 100), Foxtail, Giant: visual evaluation after 12 to 14 days
Method in brief: as §1

soybean (Glycine max) = test: Test C preemergence
Method in brief: as §1

[15] = test system: smallflower flatsedge (Cyperus difformis); test: Test C flooded paddy test; settings: for Flatsedge plant response rating: Flooded Paddy, scale 0 to 100, 0 no effect, 100 complete control; for Plant response rating, Flatsedge: flooded paddy test, scale 0 to 100 (0 no effect, 100 complete control)
Method in brief: (§2)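 Flooded paddy, 2-leaf stage at treatment. Readout: visual % control vs untreated, 0–100, at 12–14 d in greenhouse.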

[16] = test system: barnyardgrass (Echinochloa crus-galli); test: Test C flooded paddy test; settings: for Barnyardgrass plant response rating: Flooded Paddy, scale 0 to 100, 0 no effect, 100 complete control; for Plant response rating, Barnyardgrass: flooded paddy test, scale 0 to 100 (0 no effect, 100 complete control)
Method in brief: as §2

[17] = test system: duck salad (Heteranthera limosa); test: Test C flooded paddy test; settings: for Ducksalad plant response rating: Flooded Paddy, scale 0 to 100, 0 no effect, 100 complete control; for Plant response rating, Ducksalad: flooded paddy test, scale 0 to 100 (0 no effect, 100 complete control)
Method in brief: as §2

[18] = Rate 125 g/ha, scale 0 to 100, 0 no effect, 100 complete control
[19] = preemergence, Rate 62 g/ha, scale 0 to 100
[20] = preemergence, Rate 500 g/ha, visual evaluation after 12 to 14 days
[21] = preemergence, Rate 250 g/ha, scale 0 to 100, 0 no effect, 100 complete control

Structure (SMILES): COc1cc(N2CCC(n3ccc(C(C)C)n3)C2=O)ccc1C (centres unmarked) [Compound 85]
- Plant response rating, Morningglory [1, 18]: 90
- Plant response rating, Morningglory [1, 19]: 50
- Plant response rating (0 to 100), Morningglory [1, 20]: 100
- Plant response rating, Morningglory [1, 21]: 90
- Plant response rating, Bermudagrass [2, 18]: 100
- Plant response rating, Bermudagrass [2, 19]: 100
- Plant response rating (0 to 100 where 0 is no effect and 100 is complete control), Bermudagrass ([2]; preemergence, Rate 250 g/ha): 100
- Plant response rating (0 to 100 where 0 is no effect and 100 is complete control), Bermudagrass ([2]; preemergence, Rate 500 g/ha): 100
- Plant response rating, Nightshade (Nightshade; Rate 62 g/ha, scale 0 to 100): 80
- Plant response rating, Nightshade (Nightshade; [18]): 90
- Plant response rating, Nightshade (Nightshade; Rate 250 g/ha, scale 0 to 100, 0 no effect, 100 complete control): 100
- Plant response rating, Johnsongrass [3, 18]: 50
- Plant response rating (0 to 100), Johnsongrass ([3]; Rate 250 g/ha): 80
- Plant response rating (0 to 100), Johnsongrass ([3]; Rate 500 g/ha): 100
- Plant response rating, Corn (corn (Zea mays); [18]): 30
- Plant response rating, Corn (corn (Zea mays); [19]): 30
- Plant response rating (0 to 100), Corn (corn (Zea mays); preemergence, Rate 250 g/ha): 60
- Plant response rating (0 to 100), Corn (corn (Zea mays); preemergence, Rate 500 g/ha): 80
- Plant response rating, Nutsedge [4, 18]: 70
- Plant response rating, Nutsedge [4, 19]: 50
- Plant response rating (0 to 100), Nutsedge [4, 20]: 90
- Plant response rating, Nutsedge [4, 21]: 70
- Plant response rating, Cupgrass, Woolly [5, 18]: 100
- Plant response rating, Cupgrass, Woolly [5, 19]: 100
- Plant response rating (0 to 100), Cupgrass, Woolly ([5]; preemergence, Rate 250 g/ha): 100
- Plant response rating (0 to 100), Cupgrass, Woolly ([5]; preemergence, Rate 500 g/ha): 100
- Plant response rating, Velvetleaf [6, 18]: 70
- Plant response rating, Velvetleaf [6, 19]: 70
- Plant response rating (0 to 100), Velvetleaf [6, 20]: 100
- Plant response rating, Velvetleaf [6, 21]: 80
- Plant response rating, Kochia (kochia (Kochia scoparia); [18]): 100
- Plant response rating, Kochia (kochia (Kochia scoparia); [19]): 100
- Plant response rating (0 to 100), Kochia (kochia (Kochia scoparia); preemergence, Rate 250 g/ha): 100
- Plant response rating (0 to 100), Kochia (kochia (Kochia scoparia); preemergence, Rate 500 g/ha): 100
- Plant response rating, Sunflower (Sunflower): 70
- Plant response rating, Surinam grass [7, 18]: 30
- Plant response rating, Surinam grass [7, 19]: 30
- Plant response rating (0 to 100), Surinam grass ([7]; preemergence, Rate 250 g/ha): 100
- Plant response rating (0 to 100), Surinam grass ([7]; preemergence, Rate 500 g/ha): 100
- Plant response rating, Lambsquarters [8, 18]: 100
- Plant response rating, Lambsquarters [8, 19]: 100
- Plant response rating (0 to 100), Lambsquarters [8, 20]: 100
- Plant response rating, Lambsquarters [8, 21]: 100
- Plant response rating, Pigweed [9, 18]: 100
- Plant response rating, Pigweed [9, 19]: 100
- Plant response rating (0 to 100), Pigweed [9, 20]: 100
- Plant response rating, Pigweed [9, 21]: 100
- Plant response rating, Crabgrass [10, 18]: 100
- Plant response rating, Crabgrass [10, 19]: 100
- Plant response rating (0 to 100), Crabgrass ([10]; preemergence, Rate 250 g/ha): 100
- Plant response rating (0 to 100), Crabgrass ([10]; preemergence, Rate 500 g/ha): 100
- Plant response rating, Goosegrass [11, 18]: 100
- Plant response rating, Goosegrass [11, 19]: 20
- Plant response rating (0 to 100), Goosegrass ([11]; preemergence, Rate 250 g/ha): 100
- Plant response rating (0 to 100), Goosegrass ([11]; preemergence, Rate 500 g/ha): 100
- Plant response rating, Cocklebur [12, 18]: 60
- Plant response rating, Cocklebur [12, 19]: 60
- Plant response rating (0 to 100), Cocklebur ([12]; preemergence, Rate 250 g/ha): 60
- Plant response rating (0 to 100), Cocklebur ([12]; preemergence, Rate 500 g/ha): 60
- Plant response rating, Ragweed, Common [13, 18]: 100
- Plant response rating, Ragweed, Common [13, 19]: 90
- Plant response rating (0 to 100), Ragweed, Common [13, 20]: 100
- Plant response rating, Ragweed, Common [13, 21]: 100
- Plant response rating, Foxtail, Giant [14, 18]: 100
- Plant response rating, Foxtail, Giant [14, 19]: 60
- Plant response rating (0 to 100), Foxtail, Giant ([14]; preemergence, Rate 250 g/ha): 100
- Plant response rating (0 to 100), Foxtail, Giant ([14]; preemergence, Rate 500 g/ha): 100
- Plant response rating, Soybean (soybean (Glycine max); [18]): 40
- Plant response rating, Soybean (soybean (Glycine max); [19]): 20
- Plant response rating (0 to 100), Soybean (soybean (Glycine max); [20]): 100
- Plant response rating, Soybean (soybean (Glycine max); [21]): 40
- Flatsedge plant response rating ([15]; Rate 250 g/ha): 100
- Flatsedge plant response rating ([15]; Rate 500 g/ha): 100
- Plant response rating, Flatsedge ([15]; Rate 62 g/ha): 90
- Plant response rating, Flatsedge ([15]; Rate 125 g/ha): 100
- Barnyardgrass plant response rating ([16]; Rate 250 g/ha): 100
- Barnyardgrass plant response rating ([16]; Rate 500 g/ha): 100
- Plant response rating, Barnyardgrass ([16]; Rate 62 g/ha): 40
- Plant response rating, Barnyardgrass ([16]; Rate 125 g/ha): 90
- Ducksalad plant response rating ([17]; Rate 250 g/ha): 100
- Ducksalad plant response rating ([17]; Rate 500 g/ha): 100
- Plant response rating, Ducksalad ([17]; Rate 62 g/ha): 90
- Plant response rating, Ducksalad ([17]; Rate 125 g/ha): 100
